In assay [1] the target is T1, Type-1 angiotensin II receptor (Bos taurus, UniProt P25104).
T1 sequence (P25104 whole entry): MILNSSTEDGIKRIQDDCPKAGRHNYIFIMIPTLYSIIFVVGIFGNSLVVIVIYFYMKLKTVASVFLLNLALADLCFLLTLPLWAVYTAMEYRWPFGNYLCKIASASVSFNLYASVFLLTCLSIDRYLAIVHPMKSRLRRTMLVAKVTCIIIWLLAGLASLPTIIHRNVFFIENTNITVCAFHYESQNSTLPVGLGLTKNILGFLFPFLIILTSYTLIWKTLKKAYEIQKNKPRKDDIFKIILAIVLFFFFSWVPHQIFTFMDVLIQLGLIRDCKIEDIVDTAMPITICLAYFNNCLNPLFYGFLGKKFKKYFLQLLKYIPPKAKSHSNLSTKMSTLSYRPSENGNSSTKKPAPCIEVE
Kind of assay: Inhibition of [125I][Ile5]-AII binding to bovine adrenal cortex membrane Angiotensin II receptor type 1. The assay is classed as tissue-based.

Another assay is filed under the species Oryctolagus cuniculus. Briefly: Potency of the Angiotensin II-induced contraction of rabbit aortic strips. Type of assay: functional, Aorta. To be noted: for Kb: Oryctolagus cuniculus, Aorta, read-out: pA2 (converted).
For assay [2], the target named is Angiotensin II receptor (Rattus norvegicus) (UniProt P29089+P25095+P35351). Kind of assay: In vivo antagonism of Angiotensin II induced dose-pressor response in male rats. Type of assay: functional, organism-based.

Consider 39 molecules from ChEMBL document CHEMBL1127872, “Discovery and development of aryl-fused imidazole-based angiotensin II antagonists” (Bioorg Med Chem Lett, 1994).

A word on the IC50: it is the concentration that gives 50% inhibition. A low value points to higher potency. As for `CCCCc1nc2ccccc2n1Cc1cc(C(C)(C)C)c(O)c(C(C)(C)C)c1`, in assay [1], the half-maximal inhibitory concentration (IC50) was > 100000 nM.
Regarding `Cc1ccnc2c1nc(C(C)C)n2Cc1ccc(-c2ccccc2C(=O)O)cc1`, the Kb in the assay filed under Oryctolagus cuniculus was 31.6 nM. Also, in assay [2], the ED2 was found to be 0.84 mg/kg.
Take `CCCc1nc2cccnc2n1Cc1ccc(-c2ccccc2C(=O)O)cc1`: in the assay filed under Oryctolagus cuniculus, the Kb was 39.8 nM.
Consider `CSc1nc2c(C)ccnc2n1Cc1ccc(-c2ccccc2C(=O)O)cc1`, for which the Kb in the assay filed under Oryctolagus cuniculus was 10 nM. The molecule also returned an ED2 in assay [2] of 0.97 mg/kg.
`CCCCc1nc2ccccc2n1Cc1cc(I)c(O)c(I)c1` had an IC50 in assay [1] of 1500 nM.
`O=C(O)c1ccccc1-c1ccc(Cn2c(C3CC3)nc3c(C(=O)O)ccnc32)cc1`: in the assay filed under Oryctolagus cuniculus, the Kb is 25.1 nM.
Consider `CCc1nc2c(C)ccnc2n1Cc1ccc(-c2ccccc2C(=O)O)cc1`, for which the Kb in the assay filed under Oryctolagus cuniculus was 1.26 nM. In assay [2], the ED2 stood at 0.29 mg/kg.
In turn, `CCCCc1nc2ccccc2n1Cc1cc(Br)c(O)c(Br)c1` registered a half-maximal inhibitory concentration (IC50) in assay [1] of 2500 nM.
On to `Cc1ccnc2c1nc(C1CCC1)n2Cc1ccc(-c2ccccc2C(=O)O)cc1`, for which the Kb in the assay filed under Oryctolagus cuniculus is 5.01 nM. The ED2 in assay [2] amounted to 0.25 mg/kg.
Consider `CCCCc1nc2ccccc2n1Cc1ccc(O)cc1`, for which the IC50 in assay [1] was found to be 8500 nM.
As to `CCCc1nc2ncccc2n1Cc1cc(Cl)c(O)c(Cl)c1`, the Kb in the assay listed under Oryctolagus cuniculus was 794 nM.
As to `CCCCc1nc2c(C)ccnc2n1Cc1ccc(-c2ccccc2C(=O)O)cc1`, the Kb in the assay listed under Oryctolagus cuniculus is 7.94 nM. The ED2 in assay [2] was 0.45 mg/kg.
In the case of `Cc1ccnc2c1nc(C1CC1)n2Cc1cc(Cl)c(O)c(Cl)c1`, the Kb in the assay listed under Oryctolagus cuniculus is 2 nM. Also, the ED2 in assay [2] worked out at 0.079 mg/kg.
As for `Oc1c(Cl)cc(Cn2c(C3CC3)nc3ncccc32)cc1Cl`, the Kb in the assay filed under Oryctolagus cuniculus was 631 nM.
As for `CCCCc1nc2ccccc2n1Cc1ccc(I)c(O)c1I`, the IC50 in assay [1] was determined as 33000 nM.
Turning to `Cc1ccnc2c1nc(CCCO)n2Cc1ccc(-c2ccccc2C(=O)O)cc1`, the Kb in the assay filed under Oryctolagus cuniculus was 501 nM.
For the molecule `Oc1c(Cl)cc(Cn2c(C3CC3)nc3cccnc32)cc1Cl`, in the assay listed under Oryctolagus cuniculus, the Kb is 20 nM. Also, in assay [2], the ED2 was found to be 0.48 mg/kg.
Taken in the same sequence, the figures for `C/C=C/c1nc2c(C)ccnc2n1Cc1ccc(-c2ccccc2C(=O)O)cc1` were 5.01 nM and 0.35 mg/kg.
In turn, `CCCCc1nc2ccccc2n1Cc1cc(C)c(O)c(C)c1` yielded a half-maximal inhibitory concentration (IC50) in assay [1] of 4700 nM.
In the case of `CCCCc1nc(Cl)c(CO)n1Cc1ccc(-c2ccccc2-c2nnn[nH]2)cc1` [LOSARTAN], the Kb in the assay listed under Oryctolagus cuniculus was 2.51 nM. In assay [2], this molecule returned an ED2 of 0.28 mg/kg.
As to `CCCCc1nc2ncccc2n1Cc1cc(Cl)c(O)c(Cl)c1`, the Kb in the assay listed under Oryctolagus cuniculus was 398 nM.
Broadly, the pA2 is the negative logarithm of the molar antagonist concentration that doubles the agonist concentration needed for the same response. A higher pA2 goes with higher antagonist potency. For the molecule `CCCc1nc2c(C)ccnc2n1Cc1ccc(-c2ccccc2C(=O)O)cc1`, in the assay listed under Oryctolagus cuniculus, the pA2 came to 8.5 and the Kb is 3.16 nM. Besides, in assay [2], the ED2 worked out at 0.16 mg/kg.
In assay [1], `CCCCc1nc2ccccc2n1Cc1cc([N+](=O)[O-])c(O)c([N+](=O)[O-])c1` registered an IC50 of 1600 nM.
Still for that read-out and setting: under `CCCCc1nc2ccccc2n1Cc1ccc(O)c(C)c1` stands 20000 nM.
For `CCCCc1nc2c(C)cccc2n1Cc1cc(Cl)c(O)c(Cl)c1`, the Kb in the assay listed under Oryctolagus cuniculus was 20 nM. Besides, the ED2 in assay [2] came out at 1.3 mg/kg.
On to `COCc1nc2c(C)ccnc2n1Cc1ccc(-c2ccccc2C(=O)O)cc1`, for which the Kb in the assay listed under Oryctolagus cuniculus was 79.4 nM. In assay [2], the ED2 was 0.65 mg/kg.
Consider `CCCCc1nc2ccccc2n1Cc1cc(Cl)c(O)c(Cl)c1`, for which the Kb in the assay filed under Oryctolagus cuniculus is 63.1 nM. This molecule returned an IC50 in assay [1] of 3200 nM. The same molecule showed an ED2 in assay [2] of 6.5 mg/kg.
As for `CCSc1nc2c(C)ccnc2n1Cc1ccc(-c2ccccc2C(=O)O)cc1`, the Kb in the assay listed under Oryctolagus cuniculus is 5.01 nM. This molecule displayed an ED2 in assay [2] of 0.41 mg/kg.
Regarding `CCCCc1nc2c(C)ccnc2n1Cc1cc(Cl)c(O)c(Cl)c1`, in the assay listed under Oryctolagus cuniculus, the Kb was 10 nM. The ED2 in assay [2] is 0.55 mg/kg.
Turning to `CCCCc1nc2cccnc2n1Cc1cc(Cl)c(O)c(Cl)c1`, the Kb in the assay listed under Oryctolagus cuniculus was 63.1 nM. For the same molecule, in assay [2], the ED2 came out at 1.9 mg/kg.
Turning to `CCCc1nc2c(Cl)ccnc2n1Cc1ccc(-c2ccccc2C(=O)O)cc1`, the Kb in the assay filed under Oryctolagus cuniculus is 7.94 nM. In addition, the ED2 in assay [2] was 0.66 mg/kg.
In the case of `Cc1ccnc2c1nc(C)n2Cc1ccc(-c2ccccc2C(=O)O)cc1`, the Kb in the assay filed under Oryctolagus cuniculus is 50.1 nM. In assay [2], this molecule showed an ED2 of 1.3 mg/kg.
As for `Cc1ccnc2c1nc(C1CC1)n2Cc1ccc(-c2ccccc2C(=O)O)cc1`, in the assay listed under Oryctolagus cuniculus, the Kb is 2 nM. The molecule further registered an ED2 in assay [2] of 0.075 mg/kg.
With `O=C(O)c1ccccc1-c1ccc(Cn2c(C3CC3)nc3c(CO)ccnc32)cc1`, the Kb in the assay listed under Oryctolagus cuniculus was 10 nM.
Consider `CCCCc1nc2ccccc2n1Cc1cc(C)c(O)c([N+](=O)[O-])c1`, for which the IC50 in assay [1] amounted to 2200 nM.
Still for that read-out and setting: the result for `CCCCc1nc2ccccc2n1Cc1cc(C)c(O)c(I)c1` reads 2200 nM.
Take `CCCCc1nc2ccccc2n1CCc1cc(I)c(O)c(I)c1`: the half-inhibitory concentration (IC50) in assay [1] is 81000 nM.
For `CCCc1nc2cccnc2n1Cc1cc(Cl)c(O)c(Cl)c1`, in the assay filed under Oryctolagus cuniculus, the Kb is 31.6 nM. The same molecule yielded an ED2 in assay [2] of 0.65 mg/kg.
Take `CCCc1nc2c(C)ccnc2n1Cc1cc(Cl)c(O)c(Cl)c1`: in the assay listed under Oryctolagus cuniculus, the Kb is 1.26 nM. Also, the ED2 in assay [2] came out at 0.15 mg/kg.
